# Test results from US9326970B2, “Choline esters” (Encore Health, LLC, priority 2009, dated 2016).
# Experiments:
# [1] = tested on: mouse lenses; assay: Increase in elasticity: lens organ culture, change in lens diameter under coverslip (ΔD)
# Excerpt: FIG. 4 depicts a scatter plot of the change in ΔD (micrometers) in the absence (control) and presence of lipoic acid in lens organ culture experiments. […] Statistical values are highly significant at p<0.0001 by unpaired t-test and by Kruskal Wallis test, which compared medians of each data set. The relative change in Young's modulus (E) can be calculated as the cubic value derived from the ΔD of the control divided by the ΔD of the experimental or E fractional change=(ΔD con/ΔDexp)^3.
# Increase in Elasticity: Pairs of mouse lenses were incubated in medium 200 supplemented with an antibiotic, an antimycotic, the presence or absence of lipoic acid (concentrations ranging from 0.5 μM to 500 μM) for 8-15 hours. Each lens was removed from medium, weighed, and photographed on a micrometer scale. A coverslip of known weight (0.17899±0.00200 g) was placed on the lens, and the lens was photographed again on the micrometer scale. The diameter of each lens with and without the coverslip was determined from the photographs. The change in lens diameter produced by the force (coverslip) was computed ΔD=(Dwithcoverslip−Dwithoutcoverslip).
# [2] = tested on: human umbilical vein endothelial cells (HUVEC, first passage); assay: In vitro toxicology: cell viability (MultiTox-Fluor or Live/Dead assay); format: cell-based; details: doses ranging from 0.1 μM to 100 μM
# Protocol: Cell viability was determined using human umbilical vein endothelial cells (HUVEC, first passage). Cells were treated with the active agent in doses ranging from 0.1 μM to 100 μM. The number of live and dead cells was determined using the MultiTox-Fluor assay (Promega) or Live/Dead® assay (Invitrogen). Logistic plots were used to determine the compound's LD50 value. Lipoic acid was not cytotoxic the concentration range.
# [3] = tested on: protein disulfides in the mouse lenses; assay: Decrease in disulfide bonds: protein SH/SS groups in lens homogenates
# Protocol: FIG. 5 depicts a scattergram of the percent of the total protein SH groups in disulfide bonds. Free SH groups were alkylated with 4-acetamido-4′-maleimidylstilbene-2,2′-sulfonic acid (c, 1 μM, 5 μM, 9.6 μM, 50 μM, 96 μM) or 7-diethylamino-3-(4′maleimidylphenyl)-4-methyl coumarin (500 μM, and 500 μM c). Following removal of the first alkylating agent, the S—S bonds were reduced and alkylated with fluorescein-5-maleimide. Absorption spectra were used to calculated total protein (A280 nm), free protein SH (A322 or A384), and protein SS (A490) using the appropriate extinction coefficients. The symbol ‡ indicates statistically significant difference of mean with mean of control (c, p≦0.05).
# Mouse lenses were homogenized in a denaturing buffer containing a fluorescent alkylating agent to modify the free SH groups. After removing the alkylating agent homogenates were reduced and alkylated with a different fluorescent alkylating agent. Absorption spectra of the modified proteins were used to calculate free protein SH and protein SS groups.
structure (smiles),measurement,setting,value
"O=C(O)CCCCC1CCSS1 (centres unmarked) [Lipoic acid, 5-(1,2-dithiolan-3-yl)pentanoic acid]","change in ΔD (micrometers) compared to controls, FIG. 4","[1]; lens organ culture, data sets marked ‡, p<0.0001 by unpaired t-test and Kruskal Wallis test",significantly larger changes in ΔD
same,change in ΔD (lens diameter with coverslip minus without),"[1]; lipoic acid at concentrations ≧9.6 μM, 8-15 hours incubation, vs control, p<0.0001",statistically significant increase in ΔD
same,"cytotoxicity (cell viability, LD50 from logistic plots)",[2],not cytotoxic
same,"percent of the total protein SH groups in disulfide bonds, FIG. 5","[3]; 500 μM lipoic acid vs 500 μM control, p=0.027",significantly different
same,protein disulfides,"[3]; lipoic acid at concentrations ≧9.6 μM, mouse lenses with a significant increase in ΔD",statistically significant decrease in protein disulfides
